Assay results reported in US20070276034A1, “Compounds, compositions and methods for the treatment of synucleinopathies” (priority 2002, published 2007).
Read-outs that look alike come from different tables or passages of the source.

Assays:
[1] = test system: BE-M17 human neuroblastoma cells overexpressing A53T α-synuclein; test: Thioflavin S aggregation assay in rotenone-treated cells; format: cell-based
From the text: (§1) Therefore, to test the therapeutic potential of the compounds, two cell-based assays were utilized. In both assays, rotenone is used to induce mitochondrial oxidative stress and α-synuclein aggregation. The first assay utilizes the binding of the fluorescent dye thioflavin S to structures with high β-sheet content including α-synuclein fibrils. Therefore, quantitative assessment of the extent of thioflavin S-positive staining of fixed cells is used to test the ability of the compounds to decrease the amount of α-synuclein aggregates. In the second assay, cell viability is assessed using the XTT Cytotoxicity assay, which is dependent on intact, functional mitochondria in live cells. Thus, the XTT Cytotoxicity assay is used to test the ability of the compounds to ameliorate the mitochondrial toxicity and resulting loss of viability associated with the accumulation of α-synuclein aggregates. Phrased another way, the XTT Cytotoxicity assay is used to gauge the compounds neuroprotective efficacy. These studies are presented in the following examples.
(§2) BE-M17 human neuroblastoma cells stably transfected with A53T-mutant human α-synuclein were obtained. Cell culture reagents were obtained from Gibco/Invitrogen, and cells were grown in OPTIMEM supplemented with 10% FBS, Penicillin (100 units/mil)-Streptomycin (100 μg/ml) and 500 μg/ml G418 as previously described (Ostrerova-Golts et al., J. Neurosci., 20:6048-6054, 2000).
Thioflavin S is commonly used to detect amyloid-containing structures in situ, including in brain tissue (Vallet et al., Acta Neuropathol., 83:170-178, 1992), and cultured cells (Ostrerova-Golts et al., J. Neurosci., 20:6048-6054, 2000), whereas thioflavin T is often used as an in vitro reagent to analyze the aggregation of soluble amyloid proteins into fibrils enriched in β-pleated sheet structures (LeVine III, Prot. Sci., 2:404-410, 1993). Therefore, Thioflavin S histochemistry was used on cultured cells to detect aggregates containing a high degree of […] structures that formed in response to oxidative stress-inducing agents (in this case rotenone) as previously described, with minor modifications (Ostrerova-Golts et al., J. Neurosci, 20:6048-6054, 2000). Briefly, for these studies, cells were grown on Poly-D-Lysine coated glass slide chambers at approximately 3×10^4 cells/cm^2. After 24 hours, cells were treated with 500 nM, 1 μM or 5 μM rotenone (Sigma) or vehicle (0.05% DMSO) as indicated. Immediately after rotenone (or vehicle) addition, compounds were added at the indicated concentration, or cell culture media only (no compound) in the presence of rotenone was added. Identical treatments were repeated after 48 hours. After an additional 48 hours, cells were fixed for 25 minutes in 3% paraformaldehyde. After a PBS wash, the cells were incubated with 0.015% thioflavin S in 50% ethanol for 25 minutes, washed twice for four minutes in 50% ethanol and twice for five minutes in deionized water and then mounted using an aqueous-based mountant designed to protect against photobleaching. Aggregates that bind to thioflavin S were detected with a fluorescent microscope using a High Q FITC filter set (480 to 535 nm bandwidth) and a 20× objective lens unless otherwise indicated. Between 8 and 16 representative images per condition were selected, imaged and processed by an experimenter who was blinded to treatment conditions. To assess the amount of thioflavin S-positive aggregates, the total area per field covered by thioflavin S-positive inclusions was determined. […] Spurious, non-cell associated fluorescence was manually removed. Unless indicated otherwise, data represent group means ±SEM. Statistical analyses were performed with GraphPad Prism (GraphPad Inc). Differences between means (two samples) were assessed by the […]. Differences among multiple means were assessed by one-factor ANOVA followed by Tukey's multiple comparison test.

[2] = test system: A53T α-synuclein-expressing BE-M17 cells; test: XTT Cytotoxicity assay - protection against rotenone-induced cytotoxicity; format: cell-based
From the text: as §1, §2
Research has shown that the accumulation of α-synuclein fibrils in Lewy bodies contributes mechanistically to the degradation of neurons in Parkinson's disease and related disorders (Polymeropoulos et al., Science 276:2045-2047, 1997; Kruger et al., Nature Genet. 18:106-108, 1998). Here, the XTT Cytotoxicity assay (hereafter referred to as the XTT assay) was used to measure the ability of test compounds to protect against rotenone-induced cytotoxicity (neuroprotective ability). The assay is based on the principle that conversion of the yellow tetrazolium salt XTT to form an orange formazan dye (that absorbs light around 490 nm) occurs only in metabolically active, viable cells. Therefore, light absorbance at 490 nm is proportional to cell viability. For this assay, cells were plated in 96 well tissue culture dishes at 10^4 cells per well. After 24 hours, cells were treated with 500 nM or 2 μM rotenone, or vehicle (0.05% DMSO) as indicated. Immediately after rotenone addition, compounds were added at the indicated concentration. […] Untreated cells received cell culture media only (no compound, with or without rotenone). After 40-44 hours of treatment, conditioned media was removed and replaced with 100 μl fresh media and 50 μl XTT labeling reaction mixture according to the manufacturer's recommendations. Four to five hours later, the absorbance at 490 nm was measured and corrected for absorbance at the 700 nm reference wavelength. […] Percent inhibition of cell death was calculated as the proportion of the rotenone-induced absorbance (viability) decrease that was eliminated by test compound treatment.

[3] = target: T1, Wild-type α-synuclein (Homo sapiens, UniProt P37840); test: Circular dichroism spectroscopy - conversion of α-synuclein to β-sheet-rich structure; format: biochemical; conditions: for inhibition of conversion of α-synuclein to a β-sheet-rich structure (in words): 48 hours, 1 mg/ml compound (FIG. 13D)
T1 construct: purchased rPeptide (Athens, Ga., USA)
Experimental: For this purpose, α-synuclein was obtained from rPeptide (Athens, Ga., USA) as a lyophilized salt in 1 mg aliquots. Buffer components and other solvents were obtained from Sigma as A.C.S. Reagent grade or higher. Wild-type α-synuclein was dissolved in a buffer containing 9.5 mM phosphate and 139.7 mM potassium chloride, adjusted to pH 7.4. […] Aliquots of the solutions were taken at the appropriate time point for CD spectral analysis. CD spectra were acquired on a Jasco J-810 spectropolarimeter using a 0.1 cm path length cell. All spectra were recorded with a step size of 0.1 nm, a bandwidth of 1 nm, and an α-synuclein concentration of 0.1 mg/ml. The spectra were trimmed at the shortest wavelength which still provided a dynode voltage less than […]. The trimmed spectra were then subjected to a data processing routine beginning with noise reduction by Fourier transform followed by subtraction of a blank spectrum (compound or vehicle only without α-synuclein). These blank corrected spectra were then zeroed at 260 nm and the units converted from millidegrees to specific ellipticity. Percent β-sheet was determined from processed spectra by subtracting the ellipticity minimum value at approximately 218 nm from the maximum value observed at approximately 197 nm and referencing to a scale normalized to nearly fully folded and unfolded reference values, consistent with previous reports (Ramirez-Alvarado et al., J. Mol. […] Andersen et al., J. Am. Chem. […] These percent β-sheet values were then used to provide the respective relative % inhibition induced by the compounds.

[4] = 1 μM rotenone, 1 μg/ml compound
[5] = 5 μM rotenone, 1 μg/ml compound
[6] = 50 μg/ml compound, at both rotenone doses (500 nM or 2 μM)
[7] = 5 μg/ml compound, rotenone 500 nM or 2 μM

SMILES: Oc1ccc(Cc2ccc(O)c(O)c2)cc1O [Compound 3, 3,4,3′,4′-tetrahydroxydiphenylmethane]
- reduction of rotenone-induced thioflavin S-positive aggregates [1, 4]: 90%
- reduction of rotenone-induced thioflavin S-positive aggregates ([1]; 1 μM rotenone, 5 μg/ml compound): 90%

SMILES: O=C(NCc1ccc(O)c(O)c1)C(=Cc1ccc(O)c(O)c1)NC(=O)c1ccc(O)c(O)c1 [Compound 21, α-(3,4-dihydroxybenzamido)-3,4-dihydroxycinnamic acid 3,4-dihydroxybenzyl amide]
- reduction of rotenone-induced thioflavin S-positive aggregates [1, 5]: 84%
- inhibition of rotenone-induced loss of viability [2, 6]: 30-40%

SMILES: O=C(c1ccc(O)c(O)c1)N1CCN(C(=O)c2ccc(O)c(O)c2)CC1 [Compound 23, 1,4-bis(3,4-dihydroxybenzoyl)piperazine]
- inhibition of conversion of α-synuclein to a β-sheet-rich structure (in words) [3]: modest inhibitory effects

SMILES: O=C(Nc1ccc(O)c(O)c1)c1ccc(O)c(O)c1 [Compound 51, 3,4-dihydroxybenzoic acid 3,4-dihydroxyanilide]
- reduction of rotenone-induced thioflavin S-positive aggregates ([1]; 1 μM rotenone, 500 ng/ml compound): 87%
- reduction of rotenone-induced thioflavin S-positive aggregates [1, 4]: 91%
- conversion of natively unfolded α-synuclein to a β-sheet-rich structure (in words) ([3]; 1 mg/ml α-synuclein, 1 mg/ml compound, 24 hours, 37°): prevents the conversion of natively unfolded α-synuclein to a β-sheet-rich structure
- dose sufficient to completely eliminate the conversion of α-synuclein to a β-sheet-rich structure ([3]; 1.0 mg/ml α-synuclein, 24 hours incubation at 37° C.): 0.25 mg/mL
- IC50 ([3]; 1.0 mg/ml α-synuclein, 24 hours incubation at 37° C., read-out: dose sufficient to inhibit the conversion of α-synuclein to a β-sheet-rich structure by approximately 50% (converted)): 574 µM
- inhibition of conversion of α-synuclein to a β-sheet-rich structure (in words) [3]: completed inhibited conversion
- β-sheet-rich structure of α-synuclein ([3]; compound added 24 hours after the beginning (t=24 hr), up to 144 hours at 37° C.): ≤ 45%
- β-sheet-rich structure of α-synuclein ([3]; compound added at the beginning (t=0 hr), sampled up to 144 hours): approximately 10%
- optimal therapeutic dose in XTT assay ([2]; 500 nM rotenone): ~25 µg/mL
- inhibition of rotenone-induced loss of viability [2, 6]: 25-30%
- inhibition at 10 µg/mL ([2]; Homo sapiens, 10 μg/ml compound, 500 nM rotenone, read-out: inhibition of rotenone-induced toxicity): 45%
- inhibition at 25 µg/mL ([2]; Homo sapiens, 25 μg/ml compound, 500 nM rotenone, read-out: inhibition of rotenone-induced toxicity): 55%

SMILES: O=C(Nc1ccc(O)c(O)c1)C(=O)Nc1ccc(O)c(O)c1 [Compound 63, oxalic acid bis(3,4-dihydroxyanilide)]
- inhibition of conversion of α-synuclein to a β-sheet-rich structure (in words) [3]: modest inhibitory effects
- inhibition of rotenone-induced loss of viability [2, 7]: 10-13%
- inhibition at 50 µg/mL ([2]; Homo sapiens, 50 μg/ml compound, 500 nM rotenone, read-out: inhibition of rotenone-induced toxicity): ~55%
- inhibition at 50 µg/mL ([2]; Homo sapiens, 50 μg/ml compound, 2 μM rotenone, read-out: inhibition of rotenone-induced toxicity): ~35%

SMILES: O=C(Nc1ccc(O)c(O)c1)Nc1ccc(O)c(O)c1 [Compound 76, 1,3-bis(3,4-dihydroxyphenyl)urea]
- reduction of rotenone-induced thioflavin S-positive aggregates ([1]; 5 μM rotenone, 500 ng/ml compound): 73%
- reduction of rotenone-induced thioflavin S-positive aggregates [1, 5]: 80%
- reduction of rotenone-induced thioflavin S-positive aggregates ([1]; 5 μM rotenone, 5 μg/ml compound): 91%
- inhibition of conversion of α-synuclein to a β-sheet-rich structure (in words) [3]: completed inhibited conversion
- inhibition of rotenone-induced loss of viability [2, 7]: approximately 18%
